Measured values: the C3SDB collision cross section collection

Assays:
[1] = instrument: TW, calibrated with phosphatidylcholines (ESI+) and phosphatidylethanolamines (ESI-)
[2] = instrument: DT, single field, calibrated with Agilent tune mix (Agilent)

| Structure (SMILES) | collision cross section (N2) ([1]; [M+H]+) | collision cross section (N2) ([1]; [M-H]-) | other results |
| --- | --- | --- | --- |
| CCCCCCCCCCCCC=CC[C@@H](O)[C@H](CO)NC(=O)CCCCCCCCCCCCCCCCCCC [Cer(d18:1/20:0)] | 266.5 Å² | 255.8 Å² | – |
| CCCCCCCCCCCCC=CC[C@@H](O)[C@H](CO)NC(=O)CCCCCCCCCCCCCCCCCCCCC [Cer(d18:1/22:0)] | 271.8 Å² | 262 Å² | – |
| CCCCCCCCCCCCC=CC[C@@H](O)[C@H](CO)NC(=O)CCCCCCCCCCCCCCCCCCCCCCC [Cer(d18:1/24:0)] | 279.1 Å² | 268 Å² | – |
| CCCCCCCCCCCCC=CC[C@@H](O)[C@H](CO)NC(=O)CC=CCCCCCCCCCCCCCCCCCCCC [Cer(d18:1/24:1)] | 276.8 Å² | 266.4 Å² | – |
| CCCCCCCCCCCCCCCC(=O)O[C@@H](CO)COC(=O)CCCCCCCCCCC [DG(14:0/14:0)] | – | – | collision cross section (N2) ([1]; [M+H-H2O]+): 242.3 Å² |
| CCCCCCCCCCCCCCCCCCCCCC(=O)O[C@@H](CO)COC(=O)CCCCCCCCCCCCC [DG(18:0/18:0)] | – | – | collision cross section (N2) ([1]; [M+H-H2O]+): 270.5 Å² |
| CCCCC/C=C\C/C=C\C/C=C\CCCCC(=O)OC[C@H](CO)OC(=O)CCCCCCC/C=C\CCCCCCCC [DG(18:2/18:2)] | – | – | collision cross section (N2) ([1]; [M+H-H2O]+): 255.9 Å² |
| CC/C=C\C/C=C\C/C=C\C/C=C\C/C=C\CCCCCC(=O)O[C@@H](CO)COC(=O)CCCC/C=C\C/C=C\C/C=C\CCCCC [DG(20:4/20:4)] | – | – | collision cross section (N2) ([1]; [M+H-H2O]+): 262.6 Å² |
| CCCCCCCCCCCCC=CC[C@@H](O)[C@H](CO[C@@H]1O[C@H](CO)[C@@H](O)C(O)C1O)NC(=O)CCCCCCCCCCCCCCCCC (some centres undefined) [GlcCer(d18:1/18:0)] | 282.6 Å² | – | collision cross section (N2) ([1]; [M+Na]+): 282.2 Å² |
| CCCCCCCCCCCCC=CC[C@@H](O)[C@H](CO[C@@H]1O[C@H](CO)[C@@H](O)C(O)C1O)NC(=O)CCCCCCCCCCCCCCCCCCC (some centres undefined) [GlcCer(d18:1/20:0)] | 287.8 Å² | – | – |
| CCCCCCCCCCCCC=CC[C@@H](O)[C@H](CO[C@@H]1O[C@H](CO)[C@@H](O)C(O)C1O)NC(=O)CCCCCCCCCCCCCCCCCCCCC (some centres undefined) [GlcCer(d18:1/22:0)] | 293.2 Å² | – | collision cross section (N2) ([1]; [M+Na]+): 294.3 Å² |
| CCCCCCCCCCCCC=CC[C@@H](O)[C@H](CO[C@@H]1O[C@H](CO)[C@@H](O)C(O)C1O)NC(=O)CC=CCCCCCCCCCCCCCCCCCC (some centres undefined) [GlcCer(d18:1/22:1)] | 293.1 Å² | – | collision cross section (N2) ([1]; [M+Na]+): 290.1 Å² |
| CCCCCCCCCCCCC=CC[C@@H](O)[C@H](CO[C@@H]1O[C@H](CO)[C@@H](O)C(O)C1O)NC(=O)CCCCCCCCCCCCCCCCCCCCCCC (some centres undefined) [GlcCer(d18:1/24:0)] | 299.7 Å² | – | collision cross section (N2) ([1]; [M+Na]+): 299.1 Å² |
| CCCCCCCCCCCCC=CC[C@@H](O)[C@H](CO[C@@H]1O[C@H](CO)[C@@H](O)C(O)C1O)NC(=O)CC=CCCCCCCCCCCCCCCCCCCCCCC (some centres undefined) [GlcCer(d18:1/26:1)] | 304.5 Å² | – | collision cross section (N2) ([1]; [M+Na]+): 304.7 Å² |
| CCCCCCCCCCCCCC(=O)OC[C@@H](O)COP(=O)([O-])OCC[N+](C)(C)C [LPC(14:0)] | 220.8 Å² | – | collision cross section (N2) ([2]; [M+HCOO]-): 227 Å² |
| CCCCCCCCCCCCCCCC(=O)O[C@H](CO)COP(=O)(O)OCCN [LPE(16:0)] | 213.4 Å² | 206 Å² | collision cross section (N2) ([2]; [M+H]+): 213.7 Å²; collision cross section (N2) ([2]; [M+Na]+): 219.9 Å²; collision cross section (N2) ([2]; [M-H]-): 207.1 Å²; collision cross section (N2) ([1]; [M+Na]+): 218.8 Å² |
| CCCCCCCCCCCCCCCC/C=C\OC[C@@H](O)COP(=O)([O-])OCC[NH3+] [LPE(p18:0)] | 222.5 Å² | 211.4 Å² | collision cross section (N2) ([1]; [M+Na]+): 222 Å² |
| CCCC/C=C\C/C=C\CCCCCCCC(=O)O[C@H](COC(=O)CCCCCCC/C=C\CCCCCCCCC)COP(=O)(O)O [PA(36:3)] | – | 257.9 Å² | collision cross section (N2) ([2]; [M+NH4]+): 270.8 Å² |
| CCCCC/C=C\C/C=C\C/C=C\C/C=C\CCCCCC(=O)O[C@H](COC(=O)CCCCCCCCCCCCC)COP(=O)(O)O [PA(36:4)] | – | 257.1 Å² | collision cross section (N2) ([2]; [M+NH4]+): 272.4 Å²; collision cross section (N2) ([2]; [M-H]-): 258.1 Å² |
| CCCCC/C=C\C/C=C\C/C=C\CCCCC(=O)O[C@H](COC(=O)CCCCCCCCC/C=C\CCCCCCCC)COP(=O)(O)O [PA(38:4)] | – | 263.4 Å² | collision cross section (N2) ([2]; [M+NH4]+): 279.1 Å²; collision cross section (N2) ([2]; [M-H]-): 264.3 Å² |

| Structure (SMILES) | collision cross section (N2) ([1]; [M+H]+) | collision cross section (N2) ([1]; [M-H]-) | other results |
| --- | --- | --- | --- |
| CCCCCCCCCCCCCCCCCCC(=O)O[C@H](COC(=O)CCCCCCCCCCCCCCCC)COP(=O)([O-])OCC[N+](C)(C)C [PC(36:0)] | 292.5 Å² | – | – |
| CCCCC/C=C\C/C=C\C/C=C\C/C=C\C/C=C\CCC(=O)O[C@H](COC(=O)CCCCCCCCCCCCC)COP(=O)([O-])OCC[N+](C)(C)C [PC(36:5)] | 284.1 Å² | – | collision cross section (N2) ([2]; [M+H]+): 284.5 Å² |
| CCCCC/C=C\C/C=C\CCCCCCCCCC(=O)O[C@H](COC(=O)CCCCCCCCC/C=C\CCCCCC)COP(=O)([O-])OCC[N+](C)(C)C [PC(38:3)] | 291.9 Å² | – | collision cross section (N2) ([2]; [M+H]+): 295 Å²; collision cross section (N2) ([1]; [M+CH3COO]-): 296.7 Å² |
| CCCCC/C=C\C/C=C\C/C=C\CCCCC(=O)OC[C@H](COP(=O)([O-])OCC[N+](C)(C)C)OC(=O)CCCCCCCCC/C=C\C/C=C\CCCCC [PC(38:5)] | 289.7 Å² | – | collision cross section (N2) ([2]; [M+HCOO]-): 293 Å²; collision cross section (N2) ([2]; [M+H]+): 292.9 Å²; collision cross section (N2) ([2]; [M+Na]+): 296.8 Å²; collision cross section (N2) ([1]; [M+CH3COO]-): 295.4 Å² |
| CC/C=C\C/C=C\C/C=C\C/C=C\CCCCC(=O)O[C@H](COC(=O)CCCCCC/C=C\C/C=C\C/C=C\CCCCC)COP(=O)([O-])OCC[N+](C)(C)C [PC(38:7)] | 286.5 Å² | – | collision cross section (N2) ([2]; [M+H]+): 288.2 Å² |
| CCCCC/C=C\C/C=C\C/C=C\C/C=C\CCCCCC(=O)O[C@H](COC(=O)CCCCCCC/C=C\CCCCCCCC)COP(=O)([O-])OCC[N+](C)(C)C [PC(40:5)] | 295.5 Å² | – | collision cross section (N2) ([2]; [M+H]+): 298.8 Å²; collision cross section (N2) ([2]; [M+Na]+): 302 Å² |
| CCCCC/C=C\C/C=C\C/C=C\C/C=C\CCCCCC(=O)O[C@H](COC(=O)CCCC/C=C\C/C=C\C/C=C\CCCCC)COP(=O)([O-])OCC[N+](C)(C)C [PC(40:7)] | 293.2 Å² | – | collision cross section (N2) ([2]; [M+H]+): 293.6 Å² |
| CC/C=C\C/C=C\C/C=C\C/C=C\C/C=C\C/C=C\CCC(=O)OC[C@H](COP(=O)(O)OCCN)OC(=O)CCC/C=C\C/C=C\C/C=C\C/C=C\C/C=C\CC [PE(42:11)] | 280.2 Å² | – | – |
| CC/C=C\C/C=C\C/C=C\CCCCCCCC(=O)O[C@H](CO/C=C\CCCCCCCCCCCCCCCC)COP(=O)(O)OCCN [PE(p36:3)] | – | 265.2 Å² | collision cross section (N2) ([2]; [M-H]-): 265.6 Å² |
| CC/C=C\C/C=C\C/C=C\C/C=C\C/C=C\C/C=C\CCC(=O)O[C@H](CO/C=C\CCCCCCCCCCCCCC)COP(=O)(O)OCCN [PE(p38:6)] | 276.9 Å² | 268.1 Å² | collision cross section (N2) ([2]; [M+H]+): 278 Å² |
| CCCCC/C=C\C/C=C\C/C=C\C/C=C\CCCC(=O)O[C@H](CO/C=C\CCCCCCCCCCCCCCCCCC)COP(=O)(O)OCCN [PE(p40:4)] | 286.9 Å² | 276.1 Å² | collision cross section (N2) ([1]; [M+Na]+): 290.1 Å² |
| CC/C=C\C/C=C\C/C=C\C/C=C\C/C=C\CCCC(=O)O[C@H](CO/C=C\CCCCCCCCCCCCCCCCCC)COP(=O)(O)OCCN [PE(p40:5)] | 284.7 Å² | 274.8 Å² | collision cross section (N2) ([2]; [M-H]-): 276.1 Å² |
| CC/C=C\C/C=C\C/C=C\C/C=C\C/C=C\CCCC(=O)OC[C@H](COP(=O)(O)OC[C@@H](O)CO)OC(=O)CCCCCCCCC/C=C\C/C=C\CCCCC [PG(40:7)] | – | – | collision cross section (N2) ([1]; [M+Na]+): 288.3 Å² |
| CCCCC/C=C\C/C=C\C/C=C\CCCCCCC(=O)O[C@H](COC(=O)CCCC/C=C\C/C=C\C/C=C\CCCCC)COP(=O)(O)O[C@H]1C(O)C(O)C(O)[C@@H](O)C1O (some centres undefined) [PI(38:6)] | – | – | collision cross section (N2) ([1]; [M+Na]+): 292.4 Å² |
| CCCCCCCC/C=C\CCCCCCCC(=O)OC[C@H](COP(=O)(O)O[C@H]1C(O)C(O)C(O)[C@@H](OP(=O)(O)O)C1O)OC(=O)CCCCCCC/C=C\CCCCCCCC (some centres undefined) [PIP(36:2)] | – | – | collision cross section (N2) ([1]; [M+H-H2O]+): 295.5 Å² |
| CCCCC/C=C\C/C=C\C/C=C\CCCCCCC(=O)OC[C@H](COP(=O)(O)OC[C@H](N)C(=O)O)OC(=O)CCCCCCC/C=C\C/C=C\CCCCC [PS(38:5)] | – | 279 Å² | – |
| CCCCCCCCCCCCC=CC[C@@H](O)[C@H](COP(=O)([O-])OCC[N+](C)(C)C)NC(=O)CCCCCCCCCCCCCCCCCCC [SM(d18:1/20:0)] | 292.2 Å² | – | – |
| CCCCCCCCCCCCC=CC[C@@H](O)[C@H](COP(=O)([O-])OCC[N+](C)(C)C)NC(=O)CCCCCCCCCCCCCCCCCCCCCCC [SM(d18:1/24:0)] | 302.2 Å² | – | – |
| CCCCCCCCCCCCC=CC[C@@H](O)[C@H](COP(=O)([O-])OCC[N+](C)(C)C)NC(=O)CC=CCCCCCCCCCCCCCCCCCCCC [SM(d18:1/24:1)] | 300.7 Å² | – | – |
